Measurements reported in PubChem BioAssay (NCI).
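Dose response: 5 concentrations. Exposure: 48 h. Format: 96-well plates. Endpoint: linear interpolation; highest concentration if not reached. Definition used: TGI = concentration required for complete inhibition of growth.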

How the values were obtained:
Test in all cases: growth of human tumour cells (NCI), 48 h
[1] = system: 786-0 renal
[2] = system: A498 renal
[3] = system: A549 NSCLC
[4] = system: ACHN renal
[5] = system: CAKI-1 renal
[6] = system: CCRF-CEM leukemia
[7] = system: COLO 205 colon
[8] = system: DLD-1 colon
[9] = system: DMS 114 small cell lung
[10] = system: DMS 273 small cell lung
[11] = system: EKVX NSCLC
[12] = system: HCC-2998 colon
[13] = system: HCT-116 colon
[14] = system: HCT-15 colon
[15] = system: HL-60(TB) leukemia
[16] = system: HOP-18 NSCLC
[17] = system: HOP-62 NSCLC
[18] = system: HOP-92 NSCLC
[19] = system: HT29 colon
[20] = system: IGROV1 ovarian
[21] = system: K-562 leukemia
[22] = system: KM12 colon
[23] = system: KM20L2 colon
[24] = system: LOX IMVI melanoma
[25] = system: LXFL 529 NSCLC
[26] = system: M14 melanoma
[27] = system: MALME-3M melanoma
[28] = system: MOLT-4 leukemia
[29] = system: NCI-H226 lung
[30] = system: NCI-H23 lung
[31] = system: NCI-H460 lung
[32] = system: NCI-H522 lung
[33] = system: OVCAR-3 ovarian
[34] = system: OVCAR-4 ovarian
[35] = system: OVCAR-5 ovarian
[36] = system: OVCAR-8 ovarian
[37] = system: RPMI-8226 leukemia
[38] = system: SF-268 CNS
[39] = system: SF-295 CNS
[40] = system: SK-MEL-2 melanoma
[41] = system: SK-MEL-28 melanoma
[42] = system: SK-MEL-5 melanoma
[43] = system: SK-OV-3 ovarian
[44] = system: SN12C renal
[45] = system: SNB-19 CNS
[46] = system: SNB-75 CNS
[47] = system: SNB-78 CNS
[48] = system: SW-620 colon
[49] = system: TK-10 renal
[50] = system: U251 CNS
[51] = system: UACC-257 melanoma
[52] = system: UACC-62 melanoma
[53] = system: UO-31 renal
[54] = system: M19-MEL melanoma
[55] = system: RXF 393 renal

SMILES: CC(C)C(NCc1c2ccccc2[n+]([O-])c2ccccc12)C(=O)O (stereo not drawn)
- TGI [1]: > 100 µM
- TGI [2]: > 100 µM
- TGI [3]: > 100 µM
- TGI [4]: > 100 µM
- TGI [5]: > 100 µM
- TGI [6]: > 100 µM
- TGI [7]: > 100 µM
- TGI [8]: > 100 µM
- TGI [9]: > 100 µM
- TGI [10]: > 100 µM
- TGI [11]: > 100 µM
- TGI [12]: > 100 µM
- TGI [13]: > 100 µM
- TGI [14]: > 100 µM
- TGI [15]: 76 µM
- TGI [16]: > 100 µM
- TGI [17]: > 100 µM
- TGI [18]: 53.2 µM
- TGI [19]: > 100 µM
- TGI [20]: > 100 µM
- TGI [21]: > 100 µM
- TGI [22]: > 100 µM
- TGI [23]: > 100 µM
- TGI [24]: > 100 µM
- TGI [25]: > 100 µM
- TGI [26]: > 100 µM
- TGI [27]: > 100 µM
- TGI [28]: > 100 µM
- TGI [29]: > 100 µM
- TGI [30]: > 100 µM
- TGI [31]: > 100 µM
- TGI [32]: > 100 µM
- TGI [33]: > 100 µM
- TGI [34]: > 100 µM
- TGI [35]: > 100 µM
- TGI [36]: > 100 µM
- TGI [37]: 86.5 µM
- TGI [38]: > 100 µM
- TGI [39]: > 100 µM
- TGI [40]: > 100 µM
- TGI [41]: > 100 µM
- TGI [42]: > 100 µM
- TGI [43]: > 100 µM
- TGI [44]: > 100 µM
- TGI [45]: > 100 µM
- TGI [46]: > 100 µM
- TGI [47]: > 100 µM
- TGI [48]: > 100 µM
- TGI [49]: > 100 µM
- TGI [50]: > 100 µM
- TGI [51]: > 100 µM
- TGI [52]: > 100 µM
- TGI [53]: > 100 µM

SMILES: CCN(CC)c1c(C(=O)/C=C/c2ccc(F)cc2)c(-c2ccccc2)nn(C)c1=O
- TGI [1]: 23.2 µM
- TGI [2]: 21.1 µM
- TGI [3]: 43.2 µM
- TGI [4]: 20.6 µM
- TGI [5]: 69.6 µM
- TGI [6]: 6.82 µM
- TGI [7]: 14.8 µM
- TGI [8]: 26.7 µM
- TGI [9]: 19.2 µM
- TGI [10]: 21 µM
- TGI [11]: 55.3 µM
- TGI [12]: 10.5 µM
- TGI [13]: 14.5 µM
- TGI [14]: 25.7 µM
- TGI [15]: 15.7 µM
- TGI [16]: 58.4 µM
- TGI [17]: 28.6 µM
- TGI [18]: 19.4 µM
- TGI [19]: 18.6 µM
- TGI [20]: 21.9 µM
- TGI [21]: 34.1 µM
- TGI [22]: 18.9 µM
- TGI [23]: 44.4 µM
- TGI [24]: 23.6 µM
- TGI [25]: 19.9 µM
- TGI [26]: 25.6 µM
- TGI [54]: 25.1 µM
- TGI [27]: 27.8 µM
- TGI [28]: 5.91 µM
- TGI [29]: 34 µM
- TGI [30]: 16.5 µM
- TGI [31]: 18.8 µM
- TGI [32]: 13.9 µM
- TGI [33]: 21.2 µM
- TGI [34]: 20.5 µM
- TGI [35]: 41.9 µM
- TGI [36]: 19.1 µM
- TGI [37]: 9.89 µM
- TGI [55]: 11 µM
- TGI [38]: 35.8 µM
- TGI [39]: 34 µM
- TGI [40]: 16.7 µM
- TGI [41]: 31.5 µM
- TGI [42]: 21.1 µM
- TGI [43]: 60.8 µM
- TGI [44]: 21.8 µM
- TGI [45]: 58.4 µM
- TGI [46]: 22.5 µM
- TGI [47]: 44.9 µM
- TGI [48]: 34.8 µM
- TGI [49]: 38.5 µM
- TGI [50]: 19.1 µM
- TGI [51]: 21.2 µM
- TGI [52]: 33.1 µM
- TGI [53]: 24.4 µM
